We go through one substance from patent US20050130890A1, “Amyloid beta is a ligand for FPR class receptors” (priority 2001, published 2005).

Common to all, as to format: cell-based
The test system of assay [1] is human monocytes. Description: Chemotaxis (migration) of human monocytes, 48-well chamber. The following applies: PT 100 ng/ml, 37° C., 30 min. The source says:
(§1) Reagents and cells. Aβ peptide (Aβ42) and the peptide with reversed sequence (Aβ42-1) were purchased from California Peptide Research (Napa, Calif.). All peptides were examined for endotoxin contamination and were negative at highest concentrations used in the study. Human peripheral blood monocytes were isolated from buffy coats (National Institutes of Health Clinical Center, Bethesda, Md.) enriched for mononuclear cells by using iso-osmotic Percoll gradient. The purity of the cell preparations was examined by morphology and was >90%. Rat basophilic leukemia cell line (RBL-2H3) transfected with epitope-tagged N-formylpeptide receptor (FPR) (designated ETFR) was a kind gift of Dr. R. Snyderman (Duke University, Durham, N.C.). cDNA cloning and establishment of FPRL1-transfected human embryonic kidney (HEK) 293 cells (FPRL1/293) were described previously (Gao J. L. & Murphy P. M. 1993 J Biol Chem 268:[…]). All the transfected cells were maintained in culture media as described (Su S. B. et al. 1999 J Exp Med 189:395-402).
(§2) Chemotaxis assays and measurement of calcium mobilization. Chemotaxis assays were performed using 48-well chemotaxis chambers (Deng X. et al. 1999 Blood 94:1165-1673). The results were expressed as the mean number (±SD) of migrated cells in three high-powered fields in three replicate samples. Chemotaxis index, which represented the fold increase in the number of cells migrated in response to chemoattractants over the cell response to control medium, also was used. Ca^+ mobilization was measured by stimulating fura-2 AM-loaded human monocytes or receptor-transfected cells with various agents (Deng X. et al. 1999 Blood 94:1165-1673; Su S. B. et al. 1999 J Exp Med 189:395-402) and recording the ratio of fluorescence at 340 and 380 nm in a luminescence spectrometer with FL WinLab program (Perkin-Elmer, Beaconsfield, UK).

Assay [2] deals with mouse neutrophils. Description: Calcium flux in mouse neutrophils. The following applies: PTX 250 ng/ml for 4 h. The procedure: Preparation of Mouse Neutrophils. Neutrophils were obtained from the peritoneal cavity of wild type and gene knockout litter mates of F1 and F6 backcrosses of 129/sV FPR−/− mice with C57B1/6 mice 3-4 h after intraperitoneal injection of a 3% thioglycollate solution, as previously described (Gao J-L. et al. 1999 J Exp Med 189:657-662). The cell population was consistently composed of >90% neutrophils, as determined by light microscopy of DiffQuick-stained cytospins. Thus, hereafter we will refer to this cell preparation as neutrophils.
Calcium Flux Analysis. To monitor intracellular Ca^2+ concentration, adherent cells were harvested by incubation in phosphate-buffered saline at 37° C. for 15 min and then incubated in phosphate-buffered saline containing 2.5 μM Fura-2/AM at 37° C. for 45 min. […] Data were recorded every 200 ms as the relative ratio of fluorescence emitted at 510 nm following sequential excitation at 340 and 380 nm. The following ligands were evaluated: Aβ (nonfibrillated, human residues 1-42; California Peptide Research; Napa, Calif.), fMet-Leu-Phe (fMLF; Sigma), ATP (Life Technologies), and the chemokines RANTES (regulated upon activation normal T-cell expressed and secreted), SDF-1 (stromal cell-derived factor-1), 1-309, fractalkine, MIP-1α (macrophage inflammatory protein-1α), and KC (Peprotech, Rocky Hill, N.J.). […]
In general terms: A change in cytosolic calcium serves as a functional read-out for many receptors and channels.

The test system of assay [3] is human monocytes. Description: Ca2+ mobilization in fura-2 loaded human monocytes. The following applies: PT-treated cells, 20 μM Aβ42.
Description: as §1, §2

On to pertussis toxin, for which the “effect of preincubation on monocyte migration in response to Aβ42” value in assay [1] is listed as “completely abolished”. Further, in assay [2], the “effect of pretreatment on Aβ induction of calcium flux” value is recorded as “completely blocked”. The “effect of preincubation on monocyte calcium flux in response to Aβ42” value in assay [3] is on record as “completely abolished”.
